According to ChEMBL document CHEMBL4177526, “Discovery and structure activity relationship of the first potent cryptosporidium FIKK kinase inhibitor” (Bioorg Med Chem, 2017):

How the values were obtained:
[1] = molecular target: Calcium/calmodulin-dependent protein kinase kinase 2 (Homo sapiens) (UniProt Q96RR4); experiment: Inhibition of human CAMKKbeta (1 to 541 residues) assessed as residual activity at 500 nM in presence of 33P-ATP by filter binding assay relative to control
[2] = molecular target: Serine/threonine-protein kinase 33 (Homo sapiens) (UniProt Q9BYT3); experiment: Inhibition of human STK33 (1 to 514 residues) assessed as residual activity at 500 nM in presence of 33P-ATP by filter binding assay relative to control
[3] = molecular target: Ribosomal protein S6 kinase alpha-3 (Homo sapiens) (UniProt P51812); experiment: Inhibition of human RSK2 assessed as residual activity at 500 nM in presence of 33P-ATP by filter binding assay relative to control
[4] = Permeability in human Caco2 cells; type: ADME, cell-based; conditions: Caco-2, read-out: permeability
[5] = molecular target: Tyrosine-protein kinase ZAP-70 (Homo sapiens) (UniProt P43403); experiment: Inhibition of human ZAP70 (1 to 619 residues) assessed as residual activity at 500 nM in presence of 33P-ATP by filter binding assay relative to control
[6] = molecular target: MAP kinase-activated protein kinase 5 (Homo sapiens) (UniProt Q8IW41); experiment: Inhibition of human PRAK (1 to 471 residues) assessed as residual activity at 500 nM in presence of 33P-ATP by filter binding assay relative to control
[7] = molecular target: Tau-tubulin kinase 2 (Homo sapiens) (UniProt Q6IQ55); experiment: Inhibition of human TTBK2 (1 to 450 residues) assessed as residual activity at 500 nM in presence of 33P-ATP by filter binding assay relative to control
[8] = molecular target: Mitogen-activated protein kinase kinase kinase 5 (Homo sapiens) (UniProt Q99683); experiment: Inhibition of human ASK1 (670 to 950 residues) assessed as residual activity at 500 nM in presence of 33P-ATP by filter binding assay relative to control
[9] = molecular target: Dual specificity testis-specific protein kinase 1 (Homo sapiens) (UniProt Q15569); experiment: Inhibition of human TESK1 (1 to 345 residues) assessed as residual activity at 500 nM in presence of 33P-ATP by filter binding assay relative to control
[10] = molecular target: Dual specificity mitogen-activated protein kinase kinase 6 (Homo sapiens) (UniProt P52564); experiment: Inhibition of human MKK6 (2 to 334 residues) assessed as residual activity at 500 nM in presence of 33P-ATP by filter binding assay relative to control
[11] = molecular target: Serine/threonine-protein kinase Nek2 (Homo sapiens) (UniProt P51955); experiment: Inhibition of human NEK2A (1 to 445 residues) assessed as residual activity at 500 nM in presence of 33P-ATP by filter binding assay relative to control
[12] = molecular target: serine/threonine-protein kinase D1 (Homo sapiens) (UniProt Q15139); experiment: Inhibition of human PKD1 (2 to 912 residues) assessed as residual activity at 500 nM in presence of 33P-ATP by filter binding assay relative to control
[13] = molecular target: Serine/threonine-protein kinase Chk1 (Homo sapiens) (UniProt O14757); experiment: Inhibition of human CHK1 (1 to 476 residues) assessed as residual activity at 500 nM in presence of 33P-ATP by filter binding assay relative to control
[14] = molecular target: Mitogen-activated protein kinase kinase kinase 9 (Homo sapiens) (UniProt P80192); experiment: Inhibition of human MLK1 (132 to 413 residues) assessed as residual activity at 500 nM in presence of 33P-ATP by filter binding assay relative to control
[15] = test system: TGF-beta receptor type-1 (Homo sapiens), P36897 [T204D]; experiment: Inhibition of human TGFbetaR1 T204D mutant (200 to 501 residues) assessed as residual activity at 500 nM in presence of 33P-ATP by filter binding assay relative to control
[16] = molecular target: Platelet-derived growth factor receptor alpha (Homo sapiens) (UniProt P16234); experiment: Inhibition of human PDGFRalpha (551 to […] residues) assessed as residual activity at 500 nM in presence of 33P-ATP by filter binding assay relative to control
[17] = molecular target: Serine/threonine-protein kinase 24 (Homo sapiens) (UniProt Q9Y6E0); experiment: Inhibition of human MST3 (1 to 431 residues) assessed as residual activity at 500 nM in presence of 33P-ATP by filter binding assay relative to control
[18] = molecular target: Ephrin type-A receptor 2 (Homo sapiens) (UniProt P29317); experiment: Inhibition of human EPHA2 (591 to 976 residues) assessed as residual activity at 500 nM in presence of 33P-ATP by filter binding assay relative to control
[19] = molecular target: Dual specificity protein kinase TTK (Homo sapiens) (UniProt P33981); experiment: Inhibition of human TTK (1 to 857 residues) assessed as residual activity at 500 nM in presence of 33P-ATP by filter binding assay relative to control
[20] = molecular target: Inhibitor of nuclear factor kappa-B kinase subunit beta (Homo sapiens) (UniProt O14920); experiment: Inhibition of human IKKbeta (1 to 736 residues) assessed as residual activity at 500 nM in presence of 33P-ATP by filter binding assay relative to control
[21] = molecular target: Aurora kinase B (Homo sapiens) (UniProt Q96GD4); experiment: Inhibition of human Aurora B (1 to 344 residues) assessed as residual activity at 500 nM in presence of 33P-ATP by filter binding assay relative to control
[22] = molecular target: Mitogen-activated protein kinase 11 (Homo sapiens) (UniProt Q15759); experiment: Inhibition of human p38beta (1 to 364 residues) assessed as residual activity at 500 nM in presence of 33P-ATP by filter binding assay relative to control
[23] = molecular target: Mitogen-activated protein kinase kinase kinase kinase 3 (Homo sapiens) (UniProt Q8IVH8); experiment: Inhibition of human MAP4K3 (1 to 873 residues) assessed as residual activity at 500 nM in presence of 33P-ATP by filter binding assay relative to control
[24] = Ratio of EC50 for antiparasitic activity against Cryptosporidium parvum Iowa oocysts infected in human HCT8 cells to IC50 for recombinant Cryptosporidium parvum FIKK; type: functional, cell-based
[25] = molecular target: Mitogen-activated protein kinase kinase kinase 11 (Homo sapiens) (UniProt Q16584); experiment: Inhibition of human MLK3 (96 to 386 residues) assessed as residual activity at 500 nM in presence of 33P-ATP by filter binding assay relative to control
[26] = molecular target: Serine/threonine-protein kinase TBK1 (Homo sapiens) (UniProt Q9UHD2); experiment: Inhibition of human TBK1 (1 to 729 residues) assessed as residual activity at 500 nM in presence of 33P-ATP by filter binding assay relative to control
[27] = molecular target: Serine/threonine-protein kinase SIK2 (Homo sapiens) (UniProt Q9H0K1); experiment: Inhibition of human SIK2 (2 to 926 residues) assessed as residual activity at 500 nM in presence of 33P-ATP by filter binding assay relative to control
Sequence of Serine/threonine-protein kinase SIK2 (Homo sapiens) (Q9H0K1 whole entry, looked up, the tested form may be a part): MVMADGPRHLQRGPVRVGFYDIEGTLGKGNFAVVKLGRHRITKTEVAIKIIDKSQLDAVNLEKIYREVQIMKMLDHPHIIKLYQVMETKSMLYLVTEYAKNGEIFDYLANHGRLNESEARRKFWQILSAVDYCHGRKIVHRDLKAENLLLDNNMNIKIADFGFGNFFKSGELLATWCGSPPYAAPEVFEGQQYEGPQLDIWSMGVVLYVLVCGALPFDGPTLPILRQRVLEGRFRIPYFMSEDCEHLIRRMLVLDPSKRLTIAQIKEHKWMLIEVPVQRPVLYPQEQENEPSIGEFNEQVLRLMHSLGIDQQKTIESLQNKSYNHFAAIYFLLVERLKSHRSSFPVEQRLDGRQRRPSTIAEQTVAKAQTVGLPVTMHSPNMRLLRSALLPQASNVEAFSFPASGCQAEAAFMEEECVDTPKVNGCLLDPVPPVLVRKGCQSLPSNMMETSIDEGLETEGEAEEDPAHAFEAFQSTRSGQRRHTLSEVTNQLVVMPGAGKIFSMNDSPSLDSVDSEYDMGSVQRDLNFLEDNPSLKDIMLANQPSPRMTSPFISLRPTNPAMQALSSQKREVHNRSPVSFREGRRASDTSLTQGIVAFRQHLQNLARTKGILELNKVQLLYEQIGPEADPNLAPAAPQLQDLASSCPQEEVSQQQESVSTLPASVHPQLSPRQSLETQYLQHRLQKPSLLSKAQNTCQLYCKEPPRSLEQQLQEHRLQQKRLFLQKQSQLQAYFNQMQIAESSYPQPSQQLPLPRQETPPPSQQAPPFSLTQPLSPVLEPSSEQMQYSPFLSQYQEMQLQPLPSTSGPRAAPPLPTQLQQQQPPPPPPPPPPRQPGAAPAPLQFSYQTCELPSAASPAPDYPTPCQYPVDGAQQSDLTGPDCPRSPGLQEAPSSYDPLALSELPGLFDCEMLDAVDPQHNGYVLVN

Sequence of Serine/threonine-protein kinase Chk1 (Homo sapiens) (O14757 whole entry, the tested form may be a part): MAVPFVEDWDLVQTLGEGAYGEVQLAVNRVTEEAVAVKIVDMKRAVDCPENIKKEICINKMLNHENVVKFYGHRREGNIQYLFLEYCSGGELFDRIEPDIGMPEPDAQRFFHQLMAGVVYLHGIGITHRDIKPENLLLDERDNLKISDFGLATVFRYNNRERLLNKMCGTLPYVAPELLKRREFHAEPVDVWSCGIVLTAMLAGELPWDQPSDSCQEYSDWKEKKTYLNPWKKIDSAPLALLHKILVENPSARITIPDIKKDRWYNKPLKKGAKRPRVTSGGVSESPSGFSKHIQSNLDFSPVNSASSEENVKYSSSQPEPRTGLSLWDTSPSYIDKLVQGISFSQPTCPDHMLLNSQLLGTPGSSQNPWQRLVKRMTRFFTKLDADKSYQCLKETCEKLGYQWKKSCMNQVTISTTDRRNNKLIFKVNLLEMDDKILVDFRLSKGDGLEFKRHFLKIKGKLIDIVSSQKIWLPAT
Sequence of Ephrin type-A receptor 2 (Homo sapiens) (P29317 whole entry, the tested form may be a part): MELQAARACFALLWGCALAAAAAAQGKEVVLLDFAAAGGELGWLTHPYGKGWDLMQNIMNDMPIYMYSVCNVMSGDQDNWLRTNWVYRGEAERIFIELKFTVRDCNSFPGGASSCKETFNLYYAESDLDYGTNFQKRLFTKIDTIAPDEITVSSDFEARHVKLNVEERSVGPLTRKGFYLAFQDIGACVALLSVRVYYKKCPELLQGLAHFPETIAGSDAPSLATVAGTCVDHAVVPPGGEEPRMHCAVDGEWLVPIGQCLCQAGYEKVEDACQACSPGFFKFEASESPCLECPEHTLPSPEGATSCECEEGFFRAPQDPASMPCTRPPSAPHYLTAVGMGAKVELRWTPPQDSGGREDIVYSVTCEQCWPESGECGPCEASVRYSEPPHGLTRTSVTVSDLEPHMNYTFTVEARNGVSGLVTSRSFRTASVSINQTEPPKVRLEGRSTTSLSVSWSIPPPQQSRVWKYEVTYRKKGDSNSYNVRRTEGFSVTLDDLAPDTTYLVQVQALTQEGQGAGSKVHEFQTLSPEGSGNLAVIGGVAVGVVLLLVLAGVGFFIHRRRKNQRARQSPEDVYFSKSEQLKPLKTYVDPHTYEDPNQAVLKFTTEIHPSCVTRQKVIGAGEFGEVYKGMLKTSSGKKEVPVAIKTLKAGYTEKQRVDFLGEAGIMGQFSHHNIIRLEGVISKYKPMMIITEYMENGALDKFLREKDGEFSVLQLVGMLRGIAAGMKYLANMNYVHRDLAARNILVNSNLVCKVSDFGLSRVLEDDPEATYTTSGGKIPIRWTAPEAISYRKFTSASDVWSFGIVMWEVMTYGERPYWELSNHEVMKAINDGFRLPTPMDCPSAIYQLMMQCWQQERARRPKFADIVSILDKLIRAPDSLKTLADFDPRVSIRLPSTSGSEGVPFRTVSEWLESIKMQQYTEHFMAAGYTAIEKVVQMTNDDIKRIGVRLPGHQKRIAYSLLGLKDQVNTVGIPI
Sequence of Platelet-derived growth factor receptor alpha (Homo sapiens) (P16234 whole entry, the tested form may be a part): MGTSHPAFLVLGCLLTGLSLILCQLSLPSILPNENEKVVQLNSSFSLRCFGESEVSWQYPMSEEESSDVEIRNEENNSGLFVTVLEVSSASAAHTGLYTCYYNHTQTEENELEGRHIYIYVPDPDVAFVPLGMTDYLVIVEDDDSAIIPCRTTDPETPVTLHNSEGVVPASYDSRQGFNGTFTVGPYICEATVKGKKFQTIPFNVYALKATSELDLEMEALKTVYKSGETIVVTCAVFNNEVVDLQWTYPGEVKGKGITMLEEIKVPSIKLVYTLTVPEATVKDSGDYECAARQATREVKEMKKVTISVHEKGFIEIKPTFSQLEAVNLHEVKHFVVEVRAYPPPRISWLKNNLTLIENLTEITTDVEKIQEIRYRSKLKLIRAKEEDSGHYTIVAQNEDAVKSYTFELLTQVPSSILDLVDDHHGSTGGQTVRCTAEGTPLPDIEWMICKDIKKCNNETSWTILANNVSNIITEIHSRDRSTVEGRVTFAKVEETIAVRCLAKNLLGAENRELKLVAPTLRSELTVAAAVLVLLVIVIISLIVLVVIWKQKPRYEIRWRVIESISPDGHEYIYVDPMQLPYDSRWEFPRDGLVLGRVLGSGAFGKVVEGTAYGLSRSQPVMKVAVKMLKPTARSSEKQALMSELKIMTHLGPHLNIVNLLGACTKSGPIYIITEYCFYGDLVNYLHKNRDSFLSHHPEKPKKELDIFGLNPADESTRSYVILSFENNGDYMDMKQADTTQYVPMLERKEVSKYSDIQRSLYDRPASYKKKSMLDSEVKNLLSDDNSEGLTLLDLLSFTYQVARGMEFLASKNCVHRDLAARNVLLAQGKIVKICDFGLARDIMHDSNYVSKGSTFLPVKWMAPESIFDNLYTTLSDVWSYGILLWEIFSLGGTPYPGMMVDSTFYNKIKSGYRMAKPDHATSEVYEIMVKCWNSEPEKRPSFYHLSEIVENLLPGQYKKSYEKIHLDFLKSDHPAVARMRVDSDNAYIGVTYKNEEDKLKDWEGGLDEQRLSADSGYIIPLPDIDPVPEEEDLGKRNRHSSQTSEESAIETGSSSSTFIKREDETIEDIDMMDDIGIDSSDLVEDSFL
Sequence of Serine/threonine-protein kinase 24 (Homo sapiens) (Q9Y6E0 whole entry, looked up, the tested form may be a part): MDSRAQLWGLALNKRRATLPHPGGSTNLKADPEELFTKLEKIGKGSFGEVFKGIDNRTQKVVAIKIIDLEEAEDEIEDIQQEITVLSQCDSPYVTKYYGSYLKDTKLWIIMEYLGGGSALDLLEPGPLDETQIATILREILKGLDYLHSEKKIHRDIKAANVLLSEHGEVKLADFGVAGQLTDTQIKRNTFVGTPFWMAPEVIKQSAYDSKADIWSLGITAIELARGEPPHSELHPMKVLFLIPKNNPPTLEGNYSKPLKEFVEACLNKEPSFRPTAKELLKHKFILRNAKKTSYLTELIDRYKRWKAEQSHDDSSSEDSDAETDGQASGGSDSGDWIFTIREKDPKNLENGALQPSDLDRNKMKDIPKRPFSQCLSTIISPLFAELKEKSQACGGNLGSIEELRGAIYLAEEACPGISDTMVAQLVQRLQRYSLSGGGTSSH
Sequence of MAP kinase-activated protein kinase 5 (Homo sapiens) (Q8IW41 whole entry, the tested form may be a part): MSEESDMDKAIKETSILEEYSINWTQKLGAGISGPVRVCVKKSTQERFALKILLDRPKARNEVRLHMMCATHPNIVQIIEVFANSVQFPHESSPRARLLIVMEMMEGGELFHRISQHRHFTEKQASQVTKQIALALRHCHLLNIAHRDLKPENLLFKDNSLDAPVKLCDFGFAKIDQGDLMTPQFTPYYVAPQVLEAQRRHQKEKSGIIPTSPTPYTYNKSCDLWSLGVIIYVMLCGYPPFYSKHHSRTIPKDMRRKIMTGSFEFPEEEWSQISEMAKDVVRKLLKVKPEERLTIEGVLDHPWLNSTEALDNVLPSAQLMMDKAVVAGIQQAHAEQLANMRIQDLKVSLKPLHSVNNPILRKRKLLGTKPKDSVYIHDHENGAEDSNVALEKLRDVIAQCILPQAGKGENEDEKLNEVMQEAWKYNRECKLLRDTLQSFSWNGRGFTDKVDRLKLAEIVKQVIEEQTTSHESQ
Sequence of Dual specificity mitogen-activated protein kinase kinase 6 (Homo sapiens) (P52564 whole entry, the tested form may be a part): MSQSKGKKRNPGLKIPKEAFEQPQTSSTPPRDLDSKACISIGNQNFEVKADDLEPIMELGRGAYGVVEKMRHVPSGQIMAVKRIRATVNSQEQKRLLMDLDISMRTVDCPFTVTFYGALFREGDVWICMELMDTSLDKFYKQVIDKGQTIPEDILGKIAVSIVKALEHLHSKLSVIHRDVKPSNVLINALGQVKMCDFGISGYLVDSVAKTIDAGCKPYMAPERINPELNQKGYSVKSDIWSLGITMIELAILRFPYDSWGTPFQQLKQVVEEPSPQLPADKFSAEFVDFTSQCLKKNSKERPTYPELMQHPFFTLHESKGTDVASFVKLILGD

In the case of `Cc1cccc(-c2nc(N)sc2-c2ccc3ncccc3n2)c1`, the Activity [1] is reported as 124%, the Activity [2] is reported as 97% and the Activity [3] is reported as 100%. The Papp [4] was 11 ×10⁻⁶ cm/s, the Activity [5] was 97% and the Activity [6] was 105%. It also gave an Activity [7] of 125%, an Activity [8] of 106% and an Activity [9] of 87%. For the same compound, the Activity [10] was 96%, the Activity [11] was 102% and the Activity [12] was 9%. The Activity [13] was 109%, the Activity [14] was 106% and the Activity [15] was 14%. The Activity [16] was 99%, the Activity [17] was 91% and the Activity [18] was 99%. It also gave an Activity [19] of 117%, an Activity [20] of 114% and an Activity [21] of 89%. The Activity [22] was 80%, the Activity [23] was 118% and the Ratio [24] was 12800. The Activity [25] was 101%, the Activity [26] was 77% and the Activity [27] was 105%.
